Assay results reported in patent US5723439A (priority 1991, dated 1998).

Tested on: influenza A/Aichi/2/68 (H3N2) virus
Format: in vivo, mice
Details: intraperitoneal 15,000 KIU/mouse/day, 5-6 injections daily for 7 days

aprotinin
protective effect (survival): 30%
